Measured values taken from patent publication US20130295100A1, “MARKERS FOR ACUTE KIDNEY INJURY AND USES THEREOF” (OSPEDALE SAN RAFFAELE S.R.L., priority 2010, published 2013).

Tests used:
hypertension in patients = details: reference 34; cited from earlier work
ouabain antiserum = details: radioimmunoassay for endogenous ouabain, as previously described; cited from earlier work
[1] = test system: normotensive Sprague-Dawley rats; assay: Chronic subcutaneous ouabain infusion in rats (OHR): blood pressure and renal function; type: in vivo, rat; details: 8 weeks
Method: Care and husbandry of rats complied with the European Directives No. 86/609 and with the Italian Law (DL116, Jan. 27, 1992). The authorization for animal use in Prassis Sigma-Tau laboratories was obtained from the Italian Health Authority. Ouabain hypertensive rats (OHR) were obtained by subcutaneous ouabain infusion (Sprague-Dawley rats, 15 μg/kg/day ouabain from Sigma-Aldrich, n=7) with osmotic mini-pumps for 8 weeks as described.^1,2 Normotensive control rats received sterile saline (n=7). Systolic blood pressure and heart rate were recorded weekly in conscious rats by tail-cuff plethysmography.
Rats were housed in single metabolic cages and 24 h-urine samples were collected and analyzed for total protein and creatinine excretion (kits from Sentinel Diagnostics, Milan, Italy) as described in Doi M, et al.^29 At sacrifice, rat plasma was collected for creatinine determination.

[2] = test system: nephrin, synaptopodin (podocyte proteins); assay: Immunofluorescence of podocyte proteins in kidney sections of ouabain-infused rats; type: in vivo, rat; details: OHR vs control rats
Method: Immunofluorescence was performed on rat kidney sections by using anti-nephrin and anti-synaptopodin antibodies as described.^30

[3] = test system: nephrin, synaptopodin (podocyte proteins); assay: Western blot of renal microsomes from ouabain-infused rats; type: in vivo, rat; details: OHR vs control rats
Method: Renal microsomes were prepared from ouabain-infused rats and saline controls as described^30 and analyzed by Western blotting.
(§1) Samples were analyzed by Western blotting using specific antibodies against podocyte markers, such as nephrin (Santa Cruz Biotechnology), podocin (Sigma-Aldrich), synaptopodin (Progen Biotechnik), ZO-1 (Invitrogen) as described in Ferrandi M, et al (J Mol Med 2010; 88:203-217).^30 Actin (Sigma-Aldrich) was used for normalization.

[4] = test system: glomerular podocytes (nephrin, synaptopodin expression); assay: Western blot of cultured rat glomerular podocytes incubated with ouabain; type: cell-based; details: 10^−9 M ouabain for 4 days, vs control group
Method: Kidneys were taken from 7-10 day-old rats and glomerular podocytes were isolated and cultured as described.^30 Cell characterization was performed using markers of podocytes (nephrin, podocin, synaptopodin), epithelial (cytokeratin), smooth muscle (a-SMC) and endothelial cells (CD31). Podocytes were incubated in the absence or presence of 10^−9 M ouabain for 4 days and analyzed by Western blotting.
as §1

[5] = ouabain 15 μg/kg/day s.c., OHR vs saline controls, p<0.05

SMILES: C[C@]12CC[C@H](O)C[C@H]1CC[C@@H]1[C@@H]2CC[C@]2(C)[C@@](O)(c3ccoc3)CC[C@]12O [rostafuroxin]
- antihypertensive activity in patients (hypertension in patients): has been shown to have antihypertensive activity

SMILES: C[C@H]1O[C@@H](O[C@H]2[C@@H](O)C[C@H](O[C@H]3[C@@H](O)C[C@H](O[C@H]4CC[C@@]5(C)[C@H](CC[C@@H]6[C@@H]5C[C@@H](O)[C@]5(C)[C@@H](C7=CC(=O)OC7)CC[C@]65O)C4)O[C@@H]3C)O[C@@H]2C)C[C@H](O)[C@@H]1O [digoxin]
- cross-reactivity of ouabain antiserum (ouabain antiserum): approximately 0.42%

SMILES: C[C@@H]1O[C@@H](O[C@H]2C[C@@H](O)[C@]3(CO)[C@H]4[C@H](O)C[C@]5(C)[C@@H](C6=CC(=O)OC6)CC[C@]5(O)[C@@H]4CC[C@]3(O)C2)[C@H](O)[C@H](O)[C@H]1O [ouabain]
- systolic blood pressure (SBP) ([1]; ouabain 15 μg/kg/day s.c. by osmotic mini-pump, OHR vs saline controls, n=7): significantly raised
- urinary creatinine ([1]; ouabain 15 μg/kg/day s.c., 24 h urine, OHR): 33.8±1.4 mg/24 h
- reduction of creatinine clearance vs controls ([1]; ouabain 15 μg/kg/day s.c., OHR vs saline controls, p<0.02): −18%
- increase of plasma creatinine vs controls [1, 5]: +14%
- urinary protein excretion, change vs controls [1, 5]: +54%
- synaptopodin staining in kidney sections ([2]; data not shown): but not for synaptopodin
- nephrin staining in kidney sections ([2]; three rats per group): significant reduction of staining
- nephrin expression in renal microsomes, normalized for actin [3]: reduced expression
- synaptopodin expression in renal microsomes ([3]; data not shown): but not of synaptopodin
- nephrin expression in podocytes, normalized for actin [4]: decreased expression

SMILES: CC(=O)S[C@@H]1CC2=CC(=O)CC[C@]2(C)[C@H]2CC[C@@]3(C)[C@@H](CC[C@@]34CCC(=O)O4)[C@H]12 [spironolactone]
- cross-reactivity of ouabain antiserum (ouabain antiserum): < 0.01%
